Data on 3 molecules can be found in article PMC6208284 (Phytotherapy Research, 2018).

On the set-up of data set [1]: method as in Rappoport & Frankel, 1967. The conditions noted are these: ref Rappoport & Frankel, 1967; cited from earlier work.
Data set [2] concerns Leishmania tarentolae promastigotes (LtP). The data set can be described thus: Immediate mitochondrial uncoupling in LtP, OxoPlates with oligomycin. It is filed as cell-based. The conditions noted are these: positive control uncoupler, 0.7–5 μM, LtP + 5 μM Oligo. As for the experimental part:
U‐shaped 96‐well OxoPlates (OP96U PreSens, Germany) with integrated fluorescence oxygen sensors were used for parallel LtP experiments. Oxygen concentrations were measured using a PerkinElmer Enspire fluorescence plate reader using excitation wavelength 540 nm and two emission wavelengths (reference dye 590 nm, IRef, and O2‐sensing dye 650 nm, IInd). The oxygen concentration (μM O2) was calculated according to manufacturer's instructions as described previously (Monzote et al., 2016). Measurements with LtP were performed in air‐saturated BHI medium. […] Immediately before the measurement, 150 μl of well‐aerated cell suspensions (13 × 10^7 LtP per ml) was added to the respective wells. Finally, on the top of each well, 50 μl of paraffin oil was layered. Two minutes after mixing, the fluorescence measurements at 27 °C were started, and eight measurements at 5‐min intervals were performed. From the linear part of the O2 decay, the slopes were calculated and corrected for the medium drift for further statistic evaluation. All measurements were performed at least in triplicate. For bioenergetic characterization, the ATP synthase inhibitor Oligo (5 μM) and as positive control CCCP (0.7–5 μM) were used. Respiratory control ratio (RCR) was calculated from respiration rate in the presence of Oligo and compounds/uncoupler divided by the rate in the presence of Oligo.

For data set [3] the test system is unchanged. Nature of the data set: Superoxide radical detection in LtP by CMH/ESR. It is filed as cell-based. The conditions noted are these: 5 μM, positive control, with DFO and DTPA. As for the experimental part:
Detection of superoxide radicals was performed using CMH as reaction partner and measuring the formed stable nitroxyl radicals by electron spin resonance (ESR) spectroscopy. Measurements were performed in PBS (136 mM NaCl, 1.15 mM KH2PO4, 14 mM Na2HPO4, and 2.7 mM KCl, pH 7.4) containing 15 mM glucose, 400 μM CMH, and 100 μM DFO (desferrioxamine mesylate) and 25 μM DTPA. Usually, these assays are performed in the presence of iron chelators (DFO and DTPA) to prevent CMH interaction with free Fe^3+ leading to CM^● unrelated to superoxide radicals. Before the measurements, LtP suspensions were washed twice with PBS to remove the medium. Typical experiments contained 5 × 10^8 LtP cells/ml. Stock solutions of EO compounds dissolved in DMSO were added. The influence of Asc (6–700 μM) on the CMH oxidation rate by LtP was assessed immediately and after prolonged incubation time (1 hr between Asc and CMH addition). The influence of iron‐dependent Asc activation in LtP on CMH oxidation was studied in the absence of iron chelators DFO and DTPA. Prior to the ESR measurement, 400 μM CMH was added. Afterwards, 17 μl of suspension was aspirated in gas‐permeable Teflon tubes (ID 0.7 mm). This capillary tube was placed in the resonator of the ESR instrument (Bruker EMX, split ring MD5, Germany), and 10 sequential measurements were performed. The following instrument settings were used: microwave frequency 9.682 GHz, modulation frequency 100 kHz, modulation amplitude 1 G, time constant 0.082 s, center field 3,446 G, scan rate 71 G/min, sweep width 100 G, scan time 84 s, and attenuation CMH: 7.96 × 10^3. From the ESR spectra, the middle peak intensity was retrieved, and concentrations of oxidized CMH were obtained by comparison with a standard curve prepared from 3‐carboxy‐proxyl solutions with defined concentrations. Four replicate measurements were performed for each condition.

`O=[N+]([O-])c1ccc(O)c([N+](=O)[O-])c1` [2,4‐dinitrophenol, reference compound]: the pKa value entry in data set [1] is given as “around 4”.
Consider `N#CC(C#N)=NNc1cccc(Cl)c1` [CCCP, carbonyl cyanide‐m‐chlorophenylhydrazone, reference compound], for which the “Oligo‐inhibited respiration in LtP” value in data set [2] is recorded as “clear increase”.
On to `CCCCCC[C@H]1C(=O)O[C@H](C)[C@H](NC(=O)c2cccc(NC=O)c2O)C(=O)O[C@@H](C)[C@@H]1OC(=O)CC(C)C` [AA, antimycin A, reference compound], for which the “CM● formation (superoxide radicals) in LtP” value in data set [3] was “showed an increase”.
